# Values quoted from earlier work as cited in KR20170036668A, “피부 발진의 예방 또는 치료용 약학 조성물” (주식회사 대웅제약, priority 2014, dated 2017).
# Tests used:
# 피부 발진 = details: prophylactic treatment; Jatoi A et al., Cancer 113:847-853
Proportion of patients with grade 3-4 ERSE (NSCLC and PC clinical trials) [%],Time to onset of rash after start of treatment (rash above the waist),Compound,Incidence of erlotinib related skin effect (ERSE) (NSCLC and PC clinical trials) [%],Improvement of skin rash versus placebo (피부 발진) [%]
~10,7-10 일,C#Cc1cccc(Nc2ncnc3cc(OCCOC)c(OCCOC)cc23)c1 [엘로티닙],75,
,,CN(C)[C@@H]1C(O)=C(C(N)=O)C(=O)[C@@]2(O)C(O)=C3C(=O)c4c(O)cccc4[C@@](C)(O)[C@H]3C[C@@H]12 [테트라사이클린],,30
